Measurements: paper PMC5700336, “The Gastrointestinal Tract Is a Major Source of Echinocandin Drug Resistance in a Murine Model of Candida glabrata Colonization and Systemic Dissemination” (Antimicrobial Agents and Chemotherapy, 2017)

Experiments:
[1] = test system: C. glabrata wild-type and Δmsh2 cells; experiment: In vitro killing assay; type: cell-based, Candida glabrata; conditions: 128 μg/ml nikkomycin Z, caspofungin 0.016 to 32 μg/ml, RPMI, 37°C, 24 h; three independent experiments
Experimental: Fresh 1-ml RPMI cultures (plus necessary amino acids) of C. glabrata (1 × 10^7 cells) were incubated at 37°C while shaking (165 rpm) for 24 h in 2-fold increasing concentrations (0.016 to 32 μg/ml) of caspofungin and in the presence (128 μg/ml) or absence of nikkomycin Z. After 24 h, 100 μl of the appropriate dilutions for each culture was plated onto YPD plates. CFU were counted 24 h after plating and data represented as the CFU per milliliter that survived at each concentration of drug.

[2] = test system: C. glabrata Δmsh2 mutant cells; experiment: In vitro caspofungin-resistant colony frequency after nikkomycin pretreatment; type: cell-based, Candida glabrata; conditions: cells incubated with nikkomycin Z for 2 h prior to plating on agar with 2 μg/ml caspofungin
Experimental: FIG 4 Nikkomycin reduces C. glabrata caspofungin resistance and tolerance formation in vitro. (A) Caspofungin-resistant colony frequencies following selection on agar plates containing 2 μg/ml caspofungin. Cells were incubated with the indicated concentrations of nikkomycin Z for 2 h prior to plating. (B) Killing assay with strains grown in the presence or absence of 128 μg/ml nikkomycin Z (Nz) and increasing concentrations of caspofungin. The mean counts from three independent biological experiments ± standard deviations are shown.

[3] = Single-dose pharmacokinetics in plasma and GI lumen contents; type: in vivo, mice; conditions: LC-MS/MS; for large intestine mean Cmax / small intestine mean Cmax: lumen contents, mean of three mice
Experimental: Mice were colonized with ATCC 2001 and then treated (i.p.) once with 5 or 20 mg/kg caspofungin at time zero (2 days postinoculation). Three mice from each treatment group were sacrificed at each time point (0, 1, 2, 4, 8, 16, 24, and 48 h), and blood and small and large intestinal lumen contents (without intestinal walls) were collected. Fecal pellets were also collected from mice at 0, 4, 16, 24, and 48 h prior to sacrifice. Caspofungin levels in plasma and GI compartments were measured by liquid chromatography-tandem mass spectrometry (LC-MS/MS) in electrospray positive-ionization mode (ESI+) on an AB Sciex QTrap 4000 triple-quadrupole mass spectrometer combined with an Agilent 1260 high-performance liquid chromatograph (HPLC) using the Analyst software and multiple-reaction monitoring (MRM) of precursor/product transitions. The MRM transitions used were 547.50/538.40 for caspofungin and 455.4/165.2 for the internal standard verapamil. Chromatography was performed with an Agilent Zorbax SB-C8 column (2.1 by 30 mm; particle size, 3.5 μm) using a reverse-phase gradient elution. One-tenth percent formic acid in Milli-Q deionized water was used for the aqueous mobile phase and 0.1% formic acid in acetonitrile (ACN) for the organic mobile phase. Small and large intestinal contents were homogenized prior to extraction by combining 3 parts PBS buffer to 1 part GI tract contents. One milligram per milliliter dimethyl sulfoxide (DMSO) stock was serially diluted in 50/50 ACN-water to create standard curves and quality control spiking solutions. Twenty microliters of neat spiking solutions was added to 20 μl of drug-free mouse K2EDTA plasma (Bioreclamation) or GI tract homogenate, and extraction was performed by adding 200 μl of acetonitrile-methanol 50/50 protein precipitation solvent containing 10 ng/ml verapamil (Sigma). Extracts were vortexed for 5 min and centrifuged at 4,000 rpm for 5 min. The supernatants were analyzed by LC-MS. Sample analysis was accepted if the concentrations of the quality control samples were within 20% of the nominal concentration.

C. glabrata 2001 Δmsh2 [4] = experiment: Murine C. glabrata GI colonization model: GI/fecal burden under daily treatment; type: in vivo, Candida glabrata
Experimental: (§1) Six-week-old female outbred CF-1 immunocompetent mice (Charles River Laboratories) were treated (subcutaneously [s.c.]) with 320 mg/kg of piperacillin-tazobactam (PTZ; 8:1 ratio) beginning on day −2 to clear native intestinal bacterial flora. Daily PTZ treatment was maintained throughout the experiment (see Fig. 3A). On day 0, mice were inoculated via oral gavage with approximately 1.5 × 10^8 CFU of C. glabrata in 100 μl of saline. Mice were colonized with ATCC 2001 (CBS 138), clinical strains from the Perlin Laboratory collection, or mutator strain 2001 Δmsh2 ([19]). Fresh fecal samples were collected throughout the experiment to assess fungal burden in the GI tract. Daily administration of caspofungin (0.5, 5, or 20 mg/kg, i.p.), nikkomycin Z (100 mg/kg, oral) (Sigma), or saline (100 μl i.p.) was initiated on day 3 postinoculation and continued through sacrifice day (typically day 15). Caspofungin-resistant colony frequencies were determined through selection of fecal samples on yeast extract-peptone-dextrose (YPD) plates supplemented with caspofungin (2 μg/ml), PTZ (16 μg/ml), and chloramphenicol (20 μg/ml). The corticosteroid dexamethasone (DMX) was administered twice daily (100 mg/kg, i.p.) for 3 days (days 12 to 14) prior to euthanization (day 15; Fig. 3A). Blood, kidneys, liver, spleen, and the gastrointestinal tract components were collected on day 15 (or earlier where indicated), homogenized, and plated onto YPD plates supplemented with chloramphenicol (75 μg/ml) and ampicillin (50 μg/ml) to determine CFU levels.

C. glabrata ATCC 2001 = experiment: GI yeast burden after a single caspofungin dose; type: in vivo, Candida glabrata
C. glabrata 2001 Δmsh2 [5] = experiment: Systemic breakthrough (blood and organs) after dexamethasone immunosuppression; type: in vivo, Candida glabrata; conditions: day 15
Experimental: as §1, with “Blood, kidneys, liver, spleen, and the gastrointestinal tract components were collected on day 15 (or earlier where indicated), homogenized, and plated onto YPD plates supplemented with chloramphenicol (75 μg/ml) and ampicillin (50 μg/ml) to determine CFU levels.” left out

[6] = single i.p. dose, both 5 and 20 mg/kg, lumen contents without intestinal walls, three mice per time point

| SMILES | effect on killing by caspofungin [1] | effect on caspofungin-resistant colony frequency [2] | Tmax ([3]; mouse, plasma, ip, single i.p. dose, both 5 and 20 mg/kg, colonized CF-1 mice, three mice per time point, read-out: time of Cmax, plasma) [h] | large intestine mean Cmax ([3]; single i.p. dose 5 mg/kg) [µg/mL] | small intestine mean Cmax ([3]; single i.p. dose 5 mg/kg) [µg/mL] | large intestine mean Cmax ([3]; single i.p. dose 20 mg/kg) [µg/mL] | small intestine mean Cmax ([3]; single i.p. dose 20 mg/kg) [µg/mL] | time of Cmax, large intestine [3, 6] [h] | time of Cmax, small intestine [3, 6] [h] | change in GI burden (C. glabrata 2001 Δmsh2 [4]; caspofungin 0.5 mg/kg i.p. daily) | change in GI burden (C. glabrata 2001 Δmsh2 [4]; caspofungin 5 mg/kg i.p. daily) | decrease in average GI burden (C. glabrata 2001 Δmsh2 [4]; caspofungin 20 mg/kg i.p. daily from day 3, following 5 days of treatment, 10 mice per group) [log] | GI burden after rebound to baseline (C. glabrata 2001 Δmsh2 [4]; caspofungin 20 mg/kg i.p. daily, by day 11) | decrease in fecal burden (C. glabrata 2001 Δmsh2 [4]; following 4 days of 20 mg/kg caspofungin) [log] | average decrease of colonization levels throughout the GI tract (C. glabrata 2001 Δmsh2 [4]; following 4 days of 20 mg/kg caspofungin, one mouse per condition) [log] | GI burden levels after single dose (C. glabrata ATCC 2001; single i.p. dose 5 mg/kg) | GI burden levels after single dose (C. glabrata ATCC 2001; single i.p. dose 20 mg/kg) | bloodstream infection (C. glabrata 2001 Δmsh2 [5]; caspofungin 5 mg/kg i.p. daily) | bloodstream infection (C. glabrata 2001 Δmsh2 [5]; caspofungin 20 mg/kg i.p. daily) |
| --- | --- | --- | --- | --- | --- | --- | --- | --- | --- | --- | --- | --- | --- | --- | --- | --- | --- | --- | --- |
| C[C@@H]([C@H](N)C(=O)N[C@H](C(=O)O)[C@H]1O[C@@H](n2ccc(=O)[nH]c2=O)[C@H](O)[C@@H]1O)[C@H](O)c1ccc(O)cn1 [nikkomycin, nikkomycin Z] | increased the killing ability of caspofungin | reduced the frequency of caspofungin-resistant mutants | – | – | – | – | – | – | – | – | – | – | – | – | – | – | – | – | – |
| CC[C@H](C)C[C@H](C)CCCCCCCCC(=O)N[C@H]1C[C@@H](O)[C@@H](NCCN)NC(=O)[C@@H]2[C@@H](O)CCN2C(=O)[C@H]([C@H](O)CCN)NC(=O)[C@H]([C@H](O)[C@@H](O)c2ccc(O)cc2)NC(=O)[C@@H]2C[C@@H](O)CN2C(=O)[C@H]([C@@H](C)O)NC1=O [caspofungin] | – | – | 2 | 3.8 | 9.1 | 36.2 | 22.2 | 8 | 4 | unchanged | unchanged | ~2.5 | ~1 × 10^8 CFU/g of stool | 2.8 | 2.7 | minimal decrease and faster recovery to baseline | decreased by 16 h and then returned to original baseline levels by 48 h | no isolates were recovered from the blood | no isolates were recovered from the blood |
